Measured values reported in patent publication US20100105682A1, “CYCLOPROPYL-PIPERAZINE COMPOUNDS AS CALCIUM CHANNEL BLOCKERS” (priority 2006, published 2010).
Like-named read-outs stand apart in the source and are kept apart here.

Target: T1, rat brain N-type calcium channel subunits (α1B+α2δ+β1b cDNA subunits) (Rattus norvegicus, UniProt Q02294)
T1 construct: expressed in transfected cells; host or cells: HEK 293 (human embryonic kidney), stably transfected; alternatively transiently transfected
Experiment: N-type calcium channel block, whole cell patch clamp in HEK 293 cells
Format: cell-based
Conditions: holding potential −80 mV to +10 mV
Method: N-type calcium channel blocking activity was assayed in human embryonic kidney cells, HEK 293, stably transfected with the rat brain N-type calcium channel subunits (α1B+α2δ+β1b cDNA subunits). Alternatively, N-type calcium channels (α1B+α2δ+β1b cDNA subunits), L-type channels (α1C+α2δ+β1b cDNA subunits) and P/Q-type channels (α1A+α2δ+β1b cDNA subunits) were transiently expressed in HEK 293 cells. Briefly, cells were cultured in Dulbecco's modified eagle medium (DMEM) supplemented with 10% fetal bovine serum, 200 U/ml penicillin and 0.2 mg/ml streptomycin at 37 with 5% CO2. At 85% confluency cells were split with 0.25% trypsin/1 mM EDTA and plated at 10% confluency on glass coverslips. At 12 hours the medium was replaced and the cells transiently transfected using a standard calcium phosphate protocol and the appropriate calcium channel cDNA's. Fresh DMEM was supplied and the cells transferred to 28° C./5% CO2. Cells were incubated for 1 to 2 days prior to whole cell recording.
Whole cell patch clamp experiments were performed using an Axopatch 200B amplifier (Axon Instruments, Burlingame, Calif.) linked to a personal computer equipped with pCLAMP software. The external and internal recording solutions contained, respectively, 5 mM BaCl2, 10 mM MgCl2, 10 mM HEPES, 40 mM TEACl, 10 mM glucose, 87.5 mM CsCl (pH 7.2) and 108 mM CsMS, 4 mM MgCl2, 9 mM EGTA, 9 mM HEPES (pH 7.2). Currents were typically elicited from a holding potential of −80 mV to +10 mV using Clampex software (Axon Instruments). Typically, currents were first elicited with low frequency stimulation (0.067 Hz) and allowed to stabilize prior to application of the compounds. The compounds were then applied during the low frequency pulse trains for two to three minutes to assess tonic block, and subsequently the pulse frequency was increased to 0.2 Hz to assess frequency dependent block. Data were analyzed using Clampfit (Axon Instruments) and SigmaPlot 4.0 (Jandel Scientific).

[1] = low frequency stimulation 0.067 Hz (tonic block), read-out: IC50 @ 0.067 Hz
[2] = pulse frequency 0.2 Hz (frequency dependent block), read-out: IC50 @ 0.2 Hz

T1 sequence (Q02294 whole entry): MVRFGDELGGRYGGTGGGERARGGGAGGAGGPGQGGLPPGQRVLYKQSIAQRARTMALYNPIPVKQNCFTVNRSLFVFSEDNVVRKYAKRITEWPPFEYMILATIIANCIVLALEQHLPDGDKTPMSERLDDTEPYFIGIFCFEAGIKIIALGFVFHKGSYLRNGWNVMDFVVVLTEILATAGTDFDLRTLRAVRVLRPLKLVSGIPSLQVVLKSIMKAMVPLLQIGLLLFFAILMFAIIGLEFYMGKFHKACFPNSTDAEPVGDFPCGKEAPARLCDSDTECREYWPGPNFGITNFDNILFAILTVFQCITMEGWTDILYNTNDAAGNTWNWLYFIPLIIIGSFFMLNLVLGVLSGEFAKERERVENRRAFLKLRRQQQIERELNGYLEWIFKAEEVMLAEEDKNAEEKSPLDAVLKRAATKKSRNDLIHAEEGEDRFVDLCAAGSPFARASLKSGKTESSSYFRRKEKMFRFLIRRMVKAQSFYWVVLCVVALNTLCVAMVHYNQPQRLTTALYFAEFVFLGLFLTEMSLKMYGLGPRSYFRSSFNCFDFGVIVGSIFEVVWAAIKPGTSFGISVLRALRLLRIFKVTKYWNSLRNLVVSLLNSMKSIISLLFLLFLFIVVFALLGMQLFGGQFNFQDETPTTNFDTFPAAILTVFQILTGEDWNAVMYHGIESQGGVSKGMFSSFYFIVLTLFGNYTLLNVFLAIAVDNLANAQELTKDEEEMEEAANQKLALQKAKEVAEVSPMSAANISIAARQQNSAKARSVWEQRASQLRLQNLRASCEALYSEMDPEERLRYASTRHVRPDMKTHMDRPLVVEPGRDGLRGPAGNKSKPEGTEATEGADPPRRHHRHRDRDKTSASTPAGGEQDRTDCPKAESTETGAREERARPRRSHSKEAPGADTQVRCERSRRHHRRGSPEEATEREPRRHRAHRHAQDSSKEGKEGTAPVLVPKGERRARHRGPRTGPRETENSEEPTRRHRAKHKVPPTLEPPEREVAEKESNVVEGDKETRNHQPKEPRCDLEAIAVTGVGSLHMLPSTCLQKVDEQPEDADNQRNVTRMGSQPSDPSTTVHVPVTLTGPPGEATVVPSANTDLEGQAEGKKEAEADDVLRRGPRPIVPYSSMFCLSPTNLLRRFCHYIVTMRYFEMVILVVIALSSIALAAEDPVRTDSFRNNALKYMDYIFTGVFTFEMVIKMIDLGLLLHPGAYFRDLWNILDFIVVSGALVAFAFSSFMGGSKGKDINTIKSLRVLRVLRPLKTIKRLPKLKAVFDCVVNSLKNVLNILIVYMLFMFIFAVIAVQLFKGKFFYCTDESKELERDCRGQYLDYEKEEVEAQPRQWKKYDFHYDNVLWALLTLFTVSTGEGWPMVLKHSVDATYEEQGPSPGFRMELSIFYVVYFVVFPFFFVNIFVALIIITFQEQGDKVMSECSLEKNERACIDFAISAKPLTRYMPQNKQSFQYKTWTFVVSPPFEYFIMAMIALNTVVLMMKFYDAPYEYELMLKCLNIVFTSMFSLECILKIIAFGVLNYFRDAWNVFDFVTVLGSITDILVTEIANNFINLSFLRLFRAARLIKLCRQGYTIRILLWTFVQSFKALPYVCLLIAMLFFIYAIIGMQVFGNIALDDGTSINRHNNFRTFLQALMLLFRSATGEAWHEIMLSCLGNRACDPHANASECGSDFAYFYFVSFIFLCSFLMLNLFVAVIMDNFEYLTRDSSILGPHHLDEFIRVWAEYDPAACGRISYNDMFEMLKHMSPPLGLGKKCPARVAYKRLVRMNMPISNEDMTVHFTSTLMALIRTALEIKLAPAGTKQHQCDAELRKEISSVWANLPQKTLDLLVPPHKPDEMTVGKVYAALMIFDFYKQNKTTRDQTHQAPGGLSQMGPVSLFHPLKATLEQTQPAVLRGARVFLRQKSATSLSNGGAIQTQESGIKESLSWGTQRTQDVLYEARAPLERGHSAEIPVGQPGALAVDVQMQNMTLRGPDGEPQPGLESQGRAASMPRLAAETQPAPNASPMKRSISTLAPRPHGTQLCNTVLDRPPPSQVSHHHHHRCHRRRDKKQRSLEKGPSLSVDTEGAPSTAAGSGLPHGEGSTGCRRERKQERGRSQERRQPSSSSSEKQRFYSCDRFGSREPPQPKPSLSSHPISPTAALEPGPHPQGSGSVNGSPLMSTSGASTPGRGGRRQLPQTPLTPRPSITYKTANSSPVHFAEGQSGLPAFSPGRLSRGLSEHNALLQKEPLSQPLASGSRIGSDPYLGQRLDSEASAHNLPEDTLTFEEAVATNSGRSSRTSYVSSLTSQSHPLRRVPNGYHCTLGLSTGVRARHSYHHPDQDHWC
T1 sequence (P54290 25-944 partner limits assumed): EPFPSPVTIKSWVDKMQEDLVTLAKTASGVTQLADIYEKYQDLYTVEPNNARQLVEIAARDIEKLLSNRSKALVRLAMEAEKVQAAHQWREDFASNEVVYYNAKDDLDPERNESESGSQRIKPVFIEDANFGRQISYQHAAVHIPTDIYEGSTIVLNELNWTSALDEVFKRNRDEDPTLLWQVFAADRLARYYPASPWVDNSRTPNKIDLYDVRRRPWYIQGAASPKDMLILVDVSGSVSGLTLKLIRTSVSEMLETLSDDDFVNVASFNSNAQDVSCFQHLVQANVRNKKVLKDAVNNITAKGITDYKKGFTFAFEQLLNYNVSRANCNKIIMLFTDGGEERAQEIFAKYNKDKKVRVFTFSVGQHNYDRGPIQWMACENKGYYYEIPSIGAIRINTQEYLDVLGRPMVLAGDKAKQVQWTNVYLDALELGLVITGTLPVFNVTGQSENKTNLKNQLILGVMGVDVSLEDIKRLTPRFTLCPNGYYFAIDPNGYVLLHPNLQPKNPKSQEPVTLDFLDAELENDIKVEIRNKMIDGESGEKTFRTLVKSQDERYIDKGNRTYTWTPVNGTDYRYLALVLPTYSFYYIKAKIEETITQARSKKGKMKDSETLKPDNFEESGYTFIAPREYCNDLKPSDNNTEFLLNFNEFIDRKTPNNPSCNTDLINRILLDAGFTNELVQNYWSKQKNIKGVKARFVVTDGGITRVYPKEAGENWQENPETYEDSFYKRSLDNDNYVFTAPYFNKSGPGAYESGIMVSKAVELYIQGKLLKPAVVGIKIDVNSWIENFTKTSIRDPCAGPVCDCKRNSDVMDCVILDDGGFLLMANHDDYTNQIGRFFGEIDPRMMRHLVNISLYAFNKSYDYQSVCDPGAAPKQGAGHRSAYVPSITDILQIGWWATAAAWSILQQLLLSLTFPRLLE
T1 sequence (P54290 945-1091 partner limits assumed): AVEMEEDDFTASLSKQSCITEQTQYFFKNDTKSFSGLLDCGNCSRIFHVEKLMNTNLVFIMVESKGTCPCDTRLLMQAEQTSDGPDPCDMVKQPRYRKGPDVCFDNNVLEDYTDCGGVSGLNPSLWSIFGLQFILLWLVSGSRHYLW
T1 sequence (P54283 whole entry partner): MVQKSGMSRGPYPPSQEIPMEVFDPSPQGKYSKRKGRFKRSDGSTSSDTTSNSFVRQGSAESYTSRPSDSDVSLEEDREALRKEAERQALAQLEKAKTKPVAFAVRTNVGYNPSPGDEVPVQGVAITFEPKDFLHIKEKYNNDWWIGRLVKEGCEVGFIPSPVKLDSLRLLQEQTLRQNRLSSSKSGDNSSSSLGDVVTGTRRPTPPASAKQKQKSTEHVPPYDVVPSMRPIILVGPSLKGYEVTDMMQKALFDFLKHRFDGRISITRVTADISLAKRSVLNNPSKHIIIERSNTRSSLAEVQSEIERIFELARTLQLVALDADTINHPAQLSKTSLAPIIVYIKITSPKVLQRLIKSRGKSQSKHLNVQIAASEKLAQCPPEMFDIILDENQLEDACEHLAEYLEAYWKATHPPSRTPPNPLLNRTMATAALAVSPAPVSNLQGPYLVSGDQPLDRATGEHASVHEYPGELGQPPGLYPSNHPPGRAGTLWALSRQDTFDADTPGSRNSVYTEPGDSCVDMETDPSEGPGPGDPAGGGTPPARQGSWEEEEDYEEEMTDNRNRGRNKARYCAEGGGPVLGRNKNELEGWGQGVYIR

CC(C)N(C(=O)C1CC1C(=O)N1CCN(C(c2ccccc2)c2ccccc2)CC1)C(C)C (centres unmarked) [Compound 14, 2-(4-benzhydrylpiperazine-1-carbonyl)-N,N-diisopropylcyclopropane carboxamide]
IC50 [1]: 1560 nM
IC50 [2]: 860 nM

CC(C)(C)N1CCN(C(=O)C2CC2C(=O)N2CCN(C(c3ccccc3)c3ccccc3)CC2)CC1 (centres unmarked) [Compound 15, (4-benzhydrylpiperazin-1-yl)(2-(4-tert-butylpiperazine-1-carbonyl)cyclopropyl) methanone]
IC50 [1]: 8530 nM
IC50 [2]: 6860 nM

O=C(C1CC1C(=O)N1CCN(C(c2ccccc2)c2ccccc2)CC1)N1CCC(N2CCOCC2)CC1 (centres unmarked) [Compound 4, (4-benzhydrylpiperazin-1-yl)(2-(4-morpholinopiperadine-1-carbonyl)cyclopropyl)methanone]
IC50 [1]: > 5830 nM
IC50 [2]: > 3950 nM

COc1ccccc1N1CCN(C(=O)C2CC2C(=O)N2CCN(C(c3ccccc3)c3ccccc3)CC2)CC1 (centres unmarked) [Compound 9, (4-benzhydrylpiperazin-1-yl)(2-(4-(2-methoxyphenyl)piperazine-1-carbonyl)cyclopropyl)methanone]
IC50 [1]: 630 nM
IC50 [2]: 430 nM

CNC1CCN(C(=O)C2CC2C(=O)N2CCN(C(c3ccccc3)c3ccccc3)CC2)CC1 (centres unmarked) [Compound 16, (4-benzhydrylpiperazin-1-yl)(2-(4-(methylamino)piperadine-1-carbonyl)cyclopropyl)methanone]
IC50 [1]: 12500 nM
IC50 [2]: 6790 nM

O=C(C1CC1C(=O)N1CCN(C(c2ccccc2)c2ccccc2)CC1)N1CCN(c2ccccc2F)CC1 (centres unmarked) [Compound 8, (4-benzhydrylpiperazin-1-yl)(2-(4-(2-fluorophenyl)piperazine-1-carbonyl)cyclopropyl)methanone]
IC50 [1]: 940 nM
IC50 [2]: 530 nM

O=C(C1CC1C(=O)N1CCN(C(c2ccccc2)c2ccccc2)CC1)N1CCN(c2ccccc2)CC1 (centres unmarked) [Compound 2, (4-benzhydrylpiperazin-1-yl)(2-(4-phenylpiperazine-1-carbonyl)cyclopropyl)methanone]
IC50 [1]: 440 nM
IC50 [2]: 310 nM

CC1CCC(NC(=O)C2CC2C(=O)N2CCN(C(c3ccccc3)c3ccccc3)CC2)CC1 (centres unmarked) [Compound 12, 2-(4-benzhydrylpiperazine-1-carbonyl)-N-(4-methylcyclohexyl)cyclopropane carboxamide]
IC50 [1]: 180 nM
IC50 [2]: 120 nM

CC1CCC(CN2CCN(C(=O)C3CC3C(=O)N3CCN(C(c4ccccc4)c4ccccc4)CC3)CC2)CC1 (centres unmarked) [Compound 18, (4-benzhydrylpiperazin-1-yl)(2-(4-((4-methylcyclohexyl)methyl)piperazine-1-carbonyl)cyclopropyl)methanone]
IC50 [1]: 690 nM
IC50 [2]: 440 nM

CC(NC(=O)C1CC1C(=O)N1CCN(C(c2ccccc2)c2ccccc2)CC1)c1ccccc1 (centres unmarked) [Compound 10, 2-(4-benzhydrylpiperazine-1-carbonyl)-N-(1-phenylethyl)cyclopropane carboxamide]
IC50 [1]: 1550 nM
IC50 [2]: 970 nM

CC(C)(C)C1CCC(NC(=O)C2CC2C(=O)N2CCN(C(c3ccccc3)c3ccccc3)CC2)CC1 (centres unmarked) [Compound 11, 2-(4-benzhydrylpiperazine-1-carbonyl)-N-(4-tert-butylcyclohexyl)cyclopropane carboxamide]
IC50 [1]: 90 nM
IC50 [2]: 80 nM

O=C(C1CC1C(=O)N1CCN(C(c2ccccc2)c2ccccc2)CC1)N1CCN(C(c2ccccc2)c2ccccc2)CC1 (centres unmarked) [Compound 1]
IC50 [1]: 160 nM
IC50 [2]: 150 nM

COCCN1CCN(C(=O)C2CC2C(=O)N2CCN(C(c3ccccc3)c3ccccc3)CC2)CC1 (centres unmarked) [Compound 7]
IC50 [1]: 2000 nM
IC50 [2]: 1500 nM

O=C(Nc1ccccc1)C1CC1C(=O)N1CCN(C(c2ccccc2)c2ccccc2)CC1 (centres unmarked) [Compound 6, 2-(4-benzhydrylpiperazine-1-carbonyl)-N-phenylcyclopropanecarboxamide]
IC50 [1]: 3200 nM
IC50 [2]: 1900 nM

CC1CN(C(=O)C2CC2C(=O)N2CCN(C(c3ccccc3)c3ccccc3)CC2)CC(C)N1 (centres unmarked) [Compound 13, (4-benzhydrylpiperazin-1-yl)(2-(3,5-dimethylpiperazine-1-carbonyl)cyclopropyl)methanone]
IC50 [1]: 710 nM
IC50 [2]: 440 nM

CN1CCN(C(=O)C2CC2C(=O)N2CCN(C(c3ccccc3)c3ccccc3)CC2)CC1 (centres unmarked) [Compound 3, (4-benzhydrylpiperazin-1-yl)(2-(4-methylpiperazine-1-carbonyl)cyclopropyl)methanone]
IC50 [1]: 2500 nM
IC50 [2]: 1500 nM
